Values of other authors in patent US20150080442A1, “TRANSMUCOSAL DRUG DELIVERY SYSTEM” (PHARMACEUTICAL PRODUCTIONS INC., priority 2013, published 2015).

Columns and labels:
[1] = pH 6.8

Row | SMILES | mean absolute oral bioavailability | nicotine in the free base form [1]
1 | CN(C)CCc1c[nH]c2ccc(C[C@H]3COC(=O)N3)cc12 [Zolmitriptan] | approximately 40% | 
2 | CN1CCCC1c1cccnc1 (centres unmarked) [nicotine] |  | about 10%
